According to patent US20150057316A1, “NOVEL SULFONATE-BASED TRIMEBUTINE SALTS” (GICARE PHARMA INC., priority 2012, published 2015):

Experiments:
Beagle dogs = assay: MTD determination following p.o. administration in dogs; format: in vivo
Description: For MTD determination, the compound was administered once on each occasion by oral gavage, in an incremental fashion to animals, until the maximum tolerated dose is considered to have been reached. This dose was established at 2,000 mg/kg, i.e., the highest dose administered in animals. […] The animal was back to normal activity levels approximately 1 hr post dosing.

[1] = recovery of counter-ion and metabolites in urine and feces of dogs; format: in vivo; details: for mean total recovery of the unchanged counter-ion: urine and feces up to 48 hr
Description: Trimebutine 3-thiocarbamoyl-benzenesulfonate was administered as a cross over design once, each dosing separated by at least a 7-day washout period. During this study, assessments included mortality checks, clinical observations, and body weights. Feces and urine samples were collected up to 48 hr post-administration. Blood samples were also collected for pharmacokinetic evaluations on Days 1 and 8 at 10 time points. Pharmacokinetic data are presented in the two following Figures.
After proper preparation of the urine and feces samples, 3-thiocarbamoyl-benzenesulfonate counter-ion and its two potential metabolites (3-cyanobenzenesulfonate and 3-sulfobenzoate) were assessed using a LC/MS/MS method, with analysis by MRM, ESI-. Calibration curves were prepared for each analyte in blank feces homogenate, following the same procedure.

CCC(COC(=O)c1cc(OC)c(OC)c(OC)c1)(c1ccccc1)N(C)C.NC(=S)c1cccc(S(=O)(=O)O)c1 (centres unmarked) [Example 20]
clinical observations, male dog (Beagle dogs; 2,000 mg/kg p.o.): limited to vomiting a few min following dosing administration | clinical signs, female dog (Beagle dogs; 2,000 mg/kg p.o.): Decreased activity level, vomiting, bowel movement, yellowish fluid fecal consistency, vocalization about 15-20 min post-dose, decreased respiration, weak behavior, eyes partially closed, and mild transient tremors | blood pressure, male dog (Beagle dogs; 2,000 mg/kg p.o., 30 min post dose compared to pre-dose): dropped slightly | blood pressure, female dog (Beagle dogs; 2,000 mg/kg p.o., approximately 30 min post dose): almost no change in blood pressure | time back to normal activity levels, female dog (Beagle dogs; 2,000 mg/kg p.o., post dosing): approximately 1 hr | doses orally administered well tolerated (Beagle dogs; Beagle dogs, oral gavage): up to 2,000 mg/kg | maximum tolerated dose (MTD) (Beagle dogs; Beagle dogs, oral gavage, highest dose administered): 2,000 mg/kg | additional recovery as metabolite 3-cyanobenzenesulfonate ([1]; 2 mg/kg i.v.): 4.7% | recovery associated to 3-sulfobenzoate ([1]; 2 mg/kg i.v.): 0.6% | mean total recovery of the unchanged counter-ion ([1]; 2 mg/kg i.v.): about 72% | 3-sulfobenzoate in urine ([1]; 10 mg/kg p.o.): not detected | additional recovery as metabolite 3-cyanobenzenesulfonate ([1]; 10 mg/kg p.o.): 14.5% | recovery associated to 3-sulfobenzoate ([1]; 10 mg/kg p.o.): 1.7% | mean total recovery of the unchanged counter-ion ([1]; 10 mg/kg p.o.): about 61%
